Measurements reported in ChEMBL document CHEMBL1201862, “PubChem BioAssay data set” (2004).
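Dose response: 5 concentrations. Exposure: 48 h. Format: 96-well plates. Endpoint: linear interpolation; highest concentration if not reached. Abbreviation: GI50, concentration required for 50% inhibition of growth.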 Active and inactive are the calls of the source. Cut-off read from the data, not from the text of the source: active = GI50 up to about 1.1 µM and inactive = higher.

Experiments:
Assay in all cases: NCI anticancer screen, dose series, 48 h
[1] = system: 786-0
[2] = system: A498
[3] = system: A549
[4] = system: CCRF-CEM
[5] = system: COLO 205
[6] = system: HCC 2998
[7] = system: HOP-92
[8] = system: K562
[9] = system: LOX IMVI
[10] = system: MDA-MB-435
[11] = system: NCI-H23
[12] = system: OVCAR-3
[13] = system: OVCAR-5
[14] = system: RPMI-8226
[15] = system: SF-295
[16] = system: SK-OV-3
[17] = system: SN12C
[18] = system: SR
[19] = system: TK-10
[20] = system: UO-31

Row | SMILES | GI50 [1] | GI50 [2] | GI50 [3] | GI50 [4] | GI50 [5] | GI50 [6] | GI50 [7] | GI50 [8] | GI50 [9] | GI50 [10] | GI50 [11] | GI50 [12] | GI50 [13] | GI50 [14] | GI50 [15] | GI50 [16] | GI50 [17] | GI50 [18] | GI50 [19] | GI50 [20]
1 | CSc1ncc2c(n1)-c1ccccc1OC2NC(C)(C)C (stereo not given) | > 100 µM (inactive) | 2.62 µM (inactive) | > 100 µM (inactive) | 91.4 µM (inactive) | > 100 µM (inactive) | 21.3 µM (inactive) | 31.8 µM (inactive) | > 100 µM (inactive) | > 100 µM (inactive) | > 100 µM (inactive) | > 100 µM (inactive) | > 100 µM (inactive) | 50.7 µM (inactive) | 57.7 µM (inactive) | 47.3 µM (inactive) | 91.2 µM (inactive) | > 100 µM (inactive) | > 100 µM (inactive) | 33.9 µM (inactive) | 63.4 µM (inactive)
2 | O=C(NC(=O)c1ccccc1[N+](=O)[O-])Nc1ccc(Oc2ncc(Cl)cn2)c(C(F)(F)F)c1 | < 0.01 µM (active) | < 0.01 µM (active) | 0.0183 µM (active) | 0.0154 µM (active) | 0.0184 µM (active) | 0.0209 µM (active) | < 0.01 µM (active) | < 0.0336 µM (active) | 0.0262 µM (active) | < 0.01 µM (active) | 0.0257 µM (active) | < 0.01 µM (active) | 0.0119 µM (active) | 0.0208 µM (active) | < 0.01 µM (active) | < 0.01 µM (active) | 0.0873 µM (active) | 0.116 µM (active) | 20.1 µM (inactive) | 0.0281 µM (active)
3 | CN1CCOC1(C)c1ccccc1 (stereo not given) | > 100 µM (inactive) | > 100 µM (inactive) | > 100 µM (inactive) | > 100 µM (inactive) | > 100 µM (inactive) | > 100 µM (inactive) | > 100 µM (inactive) | > 100 µM (inactive) | > 100 µM (inactive) | > 100 µM (inactive) | > 100 µM (inactive) | > 100 µM (inactive) | > 100 µM (inactive) | > 100 µM (inactive) | > 100 µM (inactive) | > 100 µM (inactive) | > 100 µM (inactive) | > 100 µM (inactive) | > 100 µM (inactive) | > 100 µM (inactive)
4 | CCC(C)C(=O)O[C@H]1C(=O)O[C@@H]2C[C@H]3C(C)=CC(=O)[C@@H](O)[C@]3(C)[C@H]3[C@@H](O)[C@H](O)[C@@]4(C)OC[C@]32[C@@H]14 (stereo not given in full) | < 0.0194 µM (active) | < 0.01 µM (active) | 0.141 µM (active) | 0.0143 µM (active) | 0.0229 µM (active) | < 0.0147 µM (active) | < 0.0237 µM (active) | 0.0109 µM (active) | < 0.0129 µM (active) | < 0.01 µM (active) | < 0.01 µM (active) | 0.0169 µM (active) | < 0.0244 µM (active) | < 0.016 µM (active) | < 0.0205 µM (active) | 0.0832 µM (active) | < 0.01 µM (active) | 0.01 µM (active) | < 0.0198 µM (active) | < 0.0217 µM (active)
5 | CC(C)(C)OC(=O)N1N=CCC1c1ccccc1 (stereo not given) | > 100 µM (inactive) | > 100 µM (inactive) | > 100 µM (inactive) | 56.2 µM (inactive) | > 100 µM (inactive) | > 100 µM (inactive) | > 100 µM (inactive) | > 100 µM (inactive) | > 100 µM (inactive) | > 100 µM (inactive) | > 100 µM (inactive) | > 100 µM (inactive) | > 100 µM (inactive) | > 100 µM (inactive) | > 100 µM (inactive) | > 100 µM (inactive) | > 100 µM (inactive) | > 100 µM (inactive) | > 100 µM (inactive) | > 100 µM (inactive)
6 | O=C(NCCOC(=O)OCCNC(=O)NC1CCCCC1)NC1CCCCC1 | > 100 µM (inactive) | > 100 µM (inactive) | > 100 µM (inactive) | > 100 µM (inactive) | > 100 µM (inactive) | > 100 µM (inactive) | 27.1 µM (inactive) | > 100 µM (inactive) | > 100 µM (inactive) | > 100 µM (inactive) | 80.2 µM (inactive) | > 100 µM (inactive) | > 100 µM (inactive) | > 100 µM (inactive) | > 100 µM (inactive) | 92.5 µM (inactive) | > 100 µM (inactive) | > 100 µM (inactive) | > 100 µM (inactive) | 71.3 µM (inactive)
7 | CC(C)(C)OC(=O)NCC(CNC(=O)OC(C)(C)C)C(N)=O | > 100 µM (inactive) | > 100 µM (inactive) | > 100 µM (inactive) | > 100 µM (inactive) | > 100 µM (inactive) | > 100 µM (inactive) | > 100 µM (inactive) | > 100 µM (inactive) | > 100 µM (inactive) | > 100 µM (inactive) | > 100 µM (inactive) | > 100 µM (inactive) | > 100 µM (inactive) | > 100 µM (inactive) | > 100 µM (inactive) | > 100 µM (inactive) | > 100 µM (inactive) | > 100 µM (inactive) | > 100 µM (inactive) | > 100 µM (inactive)
8 | CC(=O)N1NC(c2ccccc2)=NC(=O)C1c1cc(C)c(O)c(C)c1 (stereo not given) | 17.3 µM (inactive) | 28.3 µM (inactive) | 24.4 µM (inactive) | > 100 µM (inactive) | > 100 µM (inactive) | 20 µM (inactive) | 19.8 µM (inactive) | > 100 µM (inactive) | 36.3 µM (inactive) | 64.4 µM (inactive) | 24 µM (inactive) | 19.2 µM (inactive) | 36.2 µM (inactive) | 52.7 µM (inactive) | 19.1 µM (inactive) | 18.7 µM (inactive) | 27.5 µM (inactive) | 49.3 µM (inactive) | 20.6 µM (inactive) | 21.7 µM (inactive)
